Results reported in patent US20240024273A1, “TOPICAL ADMINISTRATION OF 2-(DIETHYLAMINO)ETHYL 2-(4-ISOBUTYLPHENYL)PROPRIONATE FOR TREATMENT OF DISEASES” (TECHFIELDS PHARMA CO., LTD., priority 2020, published 2024).
Like-named read-outs stand apart in the source and are kept apart here.

Experiments:
[1] = Acute dermal maximum tolerated dose study; type: in vivo, Rats; details: both sexes, rat, in vivo, topical or ocular, 1000 mg/kg; once, dermal; male and female rats
rats = assay: Acute dermal maximum tolerated dose study; type: in vivo; details: single dermal dose 1000 mg/kg
[2] = tested on: healthy male and female volunteers; assay: Phase 1 clinical study: skin irritation assessment (dermal response score 0-7); type: in vivo, human; details: all dose groups
Method: Skin irritation due to study drug application was measured by a dermal response score of 0-7 assigned for each study drug application site prior to and 30 min following each dose administration. A score of 6 or 7 was considered a severe reaction. Pre-dose assessments during the multiple dosing served as the 12 hour post-dose assessment of the prior dose.

[3] = tested on: Adjuvant-induced arthritis; assay: Adjuvant-induced arthritis; type: in vivo, Lewis rats; details: 10, 30 and 90 mg/kg daily, topical
[4] = tested on: osteoarthritis of the knee; assay: Second Phase 2 study: WOMAC stiffness subscale score; type: in vivo, human; details: Low Dose (2 spray/knee, 8.75 mg/knee) Cohort
[5] = 28-day GLP repeated dermal dose toxicity and toxicokinetics study; design: species or system Rats; details: rat, in vivo; for Cmax / AUC(0-t): topical, 100 mg/kg/day, Day 28; for AUC(0-t): read-out: AUC0-24 h

SMILES: CCN(CC)CCOC(=O)C(C)c1ccc(CC(C)C)cc1 (stereo not shown) [2-(diethylamino)ethyl 2-(4-isobutylphenyl)propionate]
- MTD [1]: > 1000 mg/kg
- tolerability (rats): 2-(4-isobutylphenyl)propionate to rats at 1000 mg/kg was well tolerated
- maximum skin irritation score (0-7) [2]: ≤ 3
- arthritis [3]: significantly inhibited arthritis.
- WOMAC Joint Stiffness Subscale Score, Follow-up, Avg. ([4]; Avg. of all patients (blinded), Follow-up): 41.4
- WOMAC Joint Stiffness Subscale Score, Day 1 ([4]; individual patient (blinded), Day 1): 60.5
- WOMAC Joint Stiffness Subscale Score, Week 8 ([4]; individual patient (blinded), Week 8): 64.5
- NOAEL at 28 days ([5]; both sexes, topical or ocular, 28-day dermal, male and female, read-out: systemic NOAEL): 100 mg/kg/day
- Cmax ([5]; female, females): 46800 ng/mL
- AUC(0-t) ([5]; female, females): 422 µg·h/mL
- Cmax ([5]; male, males): 47400 ng/mL
- AUC(0-t) ([5]; male, males): 165 µg·h/mL
- NOAEL at 28 days ([5]; ulcers at application site at ≥100 mg/kg/day, read-out: local NOAEL): 25 mg/kg/day
